Reference: patent US20250100995A1, “CEREBLON BINDING COMPOUNDS, COMPOSITIONS THEREOF, AND METHODS OF TREATMENT THEREWITH” (CELGENE CORPORATION, priority 2021, published 2025)

Target: T1, AR (Homo sapiens, UniProt P10275)
T1 construct: endogenous in cells; host or cells: VCaP cells
T1 sequence (P10275 1-920): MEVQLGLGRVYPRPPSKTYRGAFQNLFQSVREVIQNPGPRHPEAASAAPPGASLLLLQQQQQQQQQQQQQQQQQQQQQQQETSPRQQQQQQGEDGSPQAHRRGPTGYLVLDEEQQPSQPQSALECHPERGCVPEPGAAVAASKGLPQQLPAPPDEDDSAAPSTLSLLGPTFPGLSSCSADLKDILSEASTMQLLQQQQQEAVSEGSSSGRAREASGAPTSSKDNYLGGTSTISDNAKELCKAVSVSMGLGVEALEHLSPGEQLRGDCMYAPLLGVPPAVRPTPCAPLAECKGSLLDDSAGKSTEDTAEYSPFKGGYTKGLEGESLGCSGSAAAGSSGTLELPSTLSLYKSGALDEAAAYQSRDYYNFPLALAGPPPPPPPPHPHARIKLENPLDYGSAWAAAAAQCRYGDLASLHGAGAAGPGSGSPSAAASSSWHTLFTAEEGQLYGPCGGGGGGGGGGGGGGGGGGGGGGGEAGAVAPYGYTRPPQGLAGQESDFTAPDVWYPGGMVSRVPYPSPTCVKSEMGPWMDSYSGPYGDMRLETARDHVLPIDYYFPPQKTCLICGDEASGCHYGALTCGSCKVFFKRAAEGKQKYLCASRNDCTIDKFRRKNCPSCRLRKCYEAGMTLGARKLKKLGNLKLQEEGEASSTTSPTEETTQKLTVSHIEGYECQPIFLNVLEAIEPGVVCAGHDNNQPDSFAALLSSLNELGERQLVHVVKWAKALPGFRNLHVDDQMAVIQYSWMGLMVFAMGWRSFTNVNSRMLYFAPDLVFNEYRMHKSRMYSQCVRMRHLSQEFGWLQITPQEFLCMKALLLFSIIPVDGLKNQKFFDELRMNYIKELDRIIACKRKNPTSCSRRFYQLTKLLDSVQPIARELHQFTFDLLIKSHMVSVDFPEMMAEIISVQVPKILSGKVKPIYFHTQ
Assay: VCAP AR Degradation Assay
Format: cell-based
Conditions: VCaP cells, 24 h, AR ELISA; for DC50: concentration of compound when AR level = 50% of DMSO control; for Y: lowest measured AR level normalized to DMSO control (AR degradation efficiency)
Description: VCAP AR Degradation Assay. Test compounds were pre-dispensed into a Corning CellBind 96-well clear bottom plate (Cat #3300) using an acoustic dispenser to make a 10-point concentration series at 1:3 dilution for each compound. The final top concentration of each compound was 5 μM. DMSO at a final concentration of 0.1% was used as a control. VCaP cells cultured in DMEM with 8% fetal bovine serum (FBS) were seeded at 50K cells per well in a 200 μL volume into the compound plate and incubated at 37° C. in a CO2 incubator for 24 h. The medium was carefully removed from the cells and the plate was placed on ice. One hundred μL of ice-cold 1× cell lysis buffer from Cell Signaling Technologies (Cat #9803) was added to each well of the cells and the plate was incubated at 4° C. on a shaker for 1 h. Fifteen μL of cell lysate was used for AR ELISA detection using a PathScan Total Sandwich AR ELISA kit (Cell Signaling Technology, Cat #12580). AR levels in compound-treated wells were normalized to that of DMSO control and expressed as percent of control (PoC) (y). A Four Parameter Logistic Model (Sigmoidal Dose-Response Model) was used to determine the compound's DC50, and EC50, using the following equation: […]
The lowest measured AR level normalized to DMSO control in response to compound treatment, termed Y value, was used to characterize the compound-mediated AR degradation efficiency.

| Structure (SMILES) | DC50 | Y |
| --- | --- | --- |
| C[C@@H]1C[C@H](OCCO[C@H]2CC[C@H](N3C(=S)N(c4ccc(C#N)c(C(F)(F)F)c4)C(=O)C3(C)C)CC2)C[C@H](C)N1CC(=O)Nc1cc(C2CCC(=O)NC2=O)ccn1 (stereo partly drawn) [Cmpd 29, 2-((2R,4r,6S)-4-(2-(((trans)-4-(3-(4-Cyano-3-(trifluoromethyl)phenyl)-5,5-dimethyl-4-oxo-2-thioxoimidazolidin-1-yl)cyclohexyl)oxy)ethoxy)-2,6-dimethylpiperidin-1-yl)-N-(4-(2,6-dioxopiperidin-3-yl)pyridin-2-yl)acetamide] | 5 to 50 nM | ** (20%<Y≤40%) |
| C[C@@H]1C[C@H](OCC[C@H]2CC[C@H](N3C(=S)N(c4cnc(C#N)c(C(F)(F)F)c4)C(=O)C3(C)C)CC2)C[C@H](C)N1CC(=O)Nc1cc(C2CCC(=O)NC2=O)ccn1 (stereo partly drawn) [Cmpd 30, 2-((2R,4r,6S)-4-(2-((trans)-4-(3-(6-Cyano-5-(trifluoromethyl)pyridin-3-yl)-5,5-dimethyl-4-oxo-2-thioxoimidazolidin-1-yl)cyclohexyl)ethoxy)-2,6-dimethylpiperidin-1-yl)-N-(4-(2,6-dioxopiperidin-3-yl)pyridin-2-yl)acetamide] | 5 to 50 nM | * (0<Y≤20%) |
